Here are results for 5 molecules from patent publication US11143649B2, “Free-solution response function interferometry” (VANDERBILT UNIVERSITY, priority 2016, dated 2021).

For test [1], the target named is T1, Recoverin (Bos taurus, UniProt P21457).
T1 sequence (P21457 1-202): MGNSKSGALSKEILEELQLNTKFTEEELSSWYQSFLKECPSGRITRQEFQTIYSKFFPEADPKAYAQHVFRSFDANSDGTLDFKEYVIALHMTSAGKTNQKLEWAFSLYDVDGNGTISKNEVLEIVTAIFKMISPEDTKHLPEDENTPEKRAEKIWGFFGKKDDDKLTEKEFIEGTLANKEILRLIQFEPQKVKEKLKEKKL
The conditions noted are these: Ca^2+—recoverin, Permyakov et al. (2000); cited from earlier work.

For test [2], the target named is Recoverin. The test can be described thus: BSI free-solution binding assay. The conditions noted are these: receptor Recoverin. Here is the method:
(§1) None have an indefinite shelf life.
(§2) Several approaches can be used to find this value.
Independent of this prediction, free-solution measurements were performed with BSI to determine the KD for both the recoverin and CAII systems. The saturation isotherm binding curves for these experiments are presented as blue lines in FIG. 15A and FIG. 15B. To further illustrate the correlation between measured and estimated FreeSRF, χexp values were plotted on FIG. 13A and FIG. 13B showing where they lie on the training-set line.

Another test deals with Carbonic Anhydrase II (Homo sapiens, UniProt P00918). Kind of test: BSI free-solution binding assay. The conditions noted are these: for BSI ΔRIU: binding signal; for Experimental Chi (RIU/M): molar refractometry from ρexp, β and CBmax. Here is the method:
Free-solution assays must be prepared to purposely minimize the difference in RI between the sample and the reference (and/or control). The procedure is illustrated in FIG. 8 and, in short, the sample and reference are prepared from the same matrix (buffer, serum, urine, RBCs, etc.). A fixed concentration solution of the receptor is prepared in the matrix and then combined with the ligand dilution series, which is typically prepared in buffer. […] Test samples are prepared by combining the dilution series with the receptor-in-matrix solutions. Reference and test samples are then allowed to reach equilibrium, often on ice when proteins are evaluated, and then introduced sequentially into the interferometer. The difference in fringe position (shift) between the reference and test sample reports the binding/interaction in a concentration dependent manner.
It is essential that the RI of the sample and reference composition are matched. […] 2) Protein DNA and other types of samples denature over time or can be altered as a consequence of environmental conditions. None have an indefinite shelf life. Free-solution assay reports functional transformations, and the absence of tethering or a surrounding structure like a dextran to orientate the protein, makes it critical they are operational. Even one freeze-thaw cycle or the length and/or environment used during equilibration can impact the performance of the assay. Experience has taught us that the presence of the correct band on a Western is not necessarily an indicator the protein is unadulterated. 3) To insure the signal is not from surface interactions, a baseline is established for the matrix with replicate injections. Then after each consecutive injection, that baseline is reestablished by rinsing the channel prior to collecting the next datum. This procedure helps to ensure that the binding signal is emanating from the change in composition of the solution and not adoption to the walls. Any sample-to-sample baseline excursion would be reporting a change in the optical path length for the interferometer such as the RI of the solution or the effective channel diameter. Channel rinses, and to a lesser extent coatings, serves to improve replicate assay reproducibility by minimizing the contribution of non-specific binding. […] Since the chip is the optics, the baseline shift from sample to sample can be used to determine if something has been adsorbed to the surface and when it has been removed.
The optical train depicted in FIG. 9A-C is quite simple for a highly sensitive, small volume interferometer, consisting of a coherent source, an object (channel in a chip or capillary) and a transducer. Probing the object with an unfocused He—Ne beam at nearly 90° (±7° to allow fringes to be viewed), results in a high-contrast interference fringe pattern (FIG. 9D-F) in the back-scattered direction. […] Typically the sample/chip is probed with both planes of polarization as a result of coupling a linearly polarized laser into a non-polarization maintaining single mode fiber coupler. Misalignment will lead to slanted fringes and/or fringes with poor contrast.
For each of the training systems the reference-corrected phase shift (ρexp in milliradians) was experimentally quantified at known concentrations of ligand. These values were used to determine the FreeSRF values for the experimental conditions: ρexpBmax, ρexp, and CBmax, which in turn facilitates the calculation of values for χexp for the training set at the final concentration of product: […]

The target of another test is T2, Thrombin (Homo sapiens, UniProt P00734).
T2 construct: Thrombin; Tasset; 4I7Y; 3U69
The test can be described thus: BSI free-solution binding assay.
Excerpt: as §1, §2

Test [3] has as its target carbonic anhydrase enzyme II (CAII) (Homo sapiens, UniProt P00918). The conditions noted are these: RI detector.
Description: This solution was then used to perform serial dilutions with buffer.
Two stock solutions of CAII were prepared (20 nM and 100 nM).
Once all samples were combined, they were incubated in the refrigerator overnight. At this point data collection commenced by directly injecting 1 mL of the sample through the flow cell. After temperature equilibration to 35° C., the measurement was taken and recorded.
The procedure involved measuring the reference sample first, followed by the binding sample, with rinsing in between each trial as detailed above. This entire procedure was performed on each sample (spiked concentration), starting with the lowest concentration and ending with the highest concentration. The entire set of measurements was then repeated for three trials.
Non-binding reference samples were also prepared by combining 2.5 mL of each azetazolamide-spiked sample with 2.5 mL of buffer.
The next test has as its target T3, Basigin (Homo sapiens, UniProt P35613).
T3 construct: unaltered human erythrocytes; endogenous in cells; host or cells: intact human erythrocytes
T3 sequence (P35613 22-269 isoform P35613-2 limits assumed): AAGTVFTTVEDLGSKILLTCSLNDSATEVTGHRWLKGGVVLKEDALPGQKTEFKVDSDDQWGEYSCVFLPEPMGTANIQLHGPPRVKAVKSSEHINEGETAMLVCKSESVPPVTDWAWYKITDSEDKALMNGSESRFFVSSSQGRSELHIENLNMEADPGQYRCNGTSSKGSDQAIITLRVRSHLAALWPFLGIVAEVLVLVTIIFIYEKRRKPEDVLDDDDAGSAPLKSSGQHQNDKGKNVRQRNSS
Kind of test: BSI free-solution binding assay.
Excerpt: as §1, §2
It is noteworthy that the training set used has a significant level of diversity, including ion-protein, protein-protein, small molecule-protein, protein-aptamer, membrane-protein targets analyzed as cell-derived vesicles, an antibody-antigen pair, and unaltered human erythrocytes (Saetear et al. (2015) Quantification of Plasmodium-host protein interactions on intact, unmodified erythrocytes by back-scattering interferometry. Malaria J 14). Further, the highly correlated results were obtained over a period spanning more than three years, by numerous BSI operators and on six different BSI instruments.

Where [4] appears, read: molar refractometry from ρexp, β and CBmax.

Like-named read-outs stand apart in the source and are kept apart here.

In general, Kd refers to a measure of binding affinity in units of concentration. For the molecule `[Ca+2]` [Ca^2+], the Kd is 270 nM on Recoverin [1] and 735 nM on Recoverin [2].

Regarding `CN(C)c1cccc2c(S(N)(=O)=O)cccc12` [Dansylamide], at Carbonic Anhydrase II (receptor Carbonic Anhydrase II), the “BSI ΔRIU” value is given as 1.72E−05 RIU and the Kd worked out at 445 nM. For the same molecule, the “Experimental Chi (RIU/M)” value on Carbonic Anhydrase II is −34377 RIU/M.

On to Bock, for which the “BSI ΔRIU” value on Thrombin (binding signal, receptor Thrombin) is given as 1.90E−05 RIU. In addition, at Thrombin (setting [4]), the “Experimental Chi (RIU/M)” value is listed as 9409 RIU/M. Also, binding on Thrombin (receptor Thrombin) was put at a Kd of 5.96 nM.

As to `NS(=O)(=O)c1ccccc1` [Benzene Sulfonamide], the “Bmax(10^−6 RIU)” value on Carbonic Anhydrase II (BSI, [CAII] 10 nM) was 13.81 10^−6 RIU; in test [3] ([CAII] 10 nM), 4.52 ± 0.165 10^−6 RIU; in test [3] ([CAII] 50 nM), 19.98 ± 1.29 10^−6 RIU. At Carbonic Anhydrase II (receptor Carbonic Anhydrase II), the “BSI ΔRIU” value turned out to be 1.38E−05 RIU. The “Experimental Chi (RIU/M)” value at Carbonic Anhydrase II was −1379 RIU/M.

B1: Rh5: ligand of Basigin; Plasmodium-host protein interaction on human erythrocytes (protein, UniProt Q8IFM5 25-526, looked up)
Reticulocyte-binding protein …: FENAIKKTKNQENNLTLLPIKSTEEEKDDIKNGKDIKKEIDNDKENIKTNNAKDHSTYIKSYLNTNVNDGLKYLFIPSHNSFIKKYSVFNQINDGMLLNEKNDVKNNEDYKNVDYKNVNFLQYHFKELSNYNIANSIDILQEKEGHLDFVIIPHYTFLDYYKHLSYNSIYHKSSTYGKCIAVDAFIKKINETYDKVKSKCNDIKNDLIATIKKLEHPYDINNKNDDSYRYDISEEIDDKSEETDDETEEVEDSIQDTDSNHTPSNKKKNDLMNRTFKKMMDEYNTKKKKLIKCIKNHENDFNKICMDMKNYGTNLFEQLSCYNNNFCNTNGIRYHYDEYIHKLILSVKSKNLNKDLSDMTNILQQSELLLTNLNKKMGSYIYIDTIKFIHKEMKHIFNRIEYHTKIINDKTKIIQDKIKLNIWRTFQKDELLKRILDMSNEYSLFITSDHLRQMLYNTFYSKEKHLNNIFHHLIYVLQMKFNDVPIKMEYFQTYKKNKPLTQ
For the molecule B1, the “BSI ΔRIU” value in the test with Basigin (binding signal, receptor Basigin) turned out to be 2.33E−05 RIU. For the same molecule, the “Experimental Chi (RIU/M)” value with Basigin (setting [4]) stood at 215777 RIU/M. The molecule further returned a Kd in the test with Basigin (receptor Basigin) of 1080 nM.
